Results from article PMC4995097, “Talin-KANK1 interaction controls the recruitment of cortical microtubule stabilizing complexes to focal adhesions” (eLife, 2016).

How the values were obtained:
[1] = test system: LL5β at the cell edge of HeLa cells; assay: Peripheral clustering of LL5β; assay type: cell-based, human; settings: talin1/2-depleted HeLa rescue (Fig 4G); mean, n = 12, SEM 4.85049
Protocol: HeLa Kyoto cell line was described previously ([Lansbergen et al., 2006]; [Mimori-Kiyosue et al., 2005]). HEK293T cells were purchased from ATCC; culture and transfection of DNA and siRNA into these cell lines was performed as previously described ([van der Vaart et al., 2013]). HaCaT cells were purchased at Cell Line Service (Eppelheim, Germany) and cultured according to manufacturer’s instructions. The cell lines were routinely checked for mycoplasma contamination using LT07-518 Mycoalert assay (Lonza, Switzerland).The identity of the cell lines was monitored by immunofluorescence-staining-based analysis with multiple markers. Blebbistatin was purchased from Enzo Life Sciences and used at 50 μM. Serum starvation in HeLa cells was done for 48 hr and focal adhesion assembly was stimulated by incubation with fetal calf serum-containing medium with or without blebbistatin for 2 hr. ROCK1 inhibitor Y-27632 was purchased at Sigma-Aldrich and used at 1 or 10 μM. Double stable HeLa cell line expressing GFP-KANK1 and TagRFP-paxillin was made by viral infection. We used a pLVIN-TagRFP-paxillin-based lentivirus and a pQC-GFP-KANK1-based retrovirus packaged in HEK293T cells using respectively Lenti-X HTX packaging and pCL-Ampho vectors. Antibiotic selection was applied to cells 48 hr after infection using 500 μg/ml G418 (Geneticin, Life Technologies) and 1 μg/ml puromycin (InvivoGen).
Antibodies against HA and GFP tags, and liprin β1 used for Western blot analysis were previously described ([van der Vaart et al., 2013]). Rabbit antibodies against KANK1 (HPA005539) and KANK2 (HPA015643) were purchased at Sigma-Aldrich. Western blot analysis of KANK1 was performed using rabbit polyclonal KANK1 antibody (A301-882A) purchased at Bethyl Laboratories. Talin immunofluorescence staining was performed using mouse monoclonal 8d4 antibody (Sigma-Aldrich). Western blot analysis of talin 1 and 2 expression was performed using respectively the isotype specific mouse monoclonal 97H6 (Sigma-Aldrich) and 68E7 (Abcam) antibodies. Ku80 (7/Ku80) antibody was purchased from BD Biosciences. Immunofluorescence staining of KANK1, LL5β, liprin β1, KIF21A and CLASP2 in HeLa and HaCaT cells was performed using the antibodies and procedures previously described ([Lansbergen et al., 2006]; [van der Vaart et al., 2013]). F-actin was stained using Alexa Fluor 594-conjugated phalloidin (Life Technologies). Phospho-tyrosine mouse antibody (PT-66) was purchased from Sigma-Aldrich and rabbit FAK phospho-tyrosine 397 was purchased from Biosource.
Fixed samples and corresponding immunofluorescence images were acquired using widefield fluorescence illumination on a Nikon Eclipse 80i or Ni upright microscope equipped with a CoolSNAP HQ2 CCD camera (Photometrics) or a DS-Qi2 camera (Nikon) an Intensilight C-HGFI precentered fiber illuminator (Nikon), ET-DAPI, ET-EGFP and ET-mCherry filters (Chroma), Nikon NIS Br software, Plan Apo VC 100x NA 1.4 oil, Plan Apo Lambda 100X oil NA 1.45 and Plan Apo VC 60x NA 1.4 oil (Nikon) objectives. […]

[2] = test system: focal adhesions in HeLa cells; assay: FA area; assay type: cell-based, human; set-up: AV areaFA: unit not given here; settings: HeLa, TLN1-KD, mTLN1 rescue; mean of per-cell averages, Count 12
Protocol: HeLa Kyoto cell line was described previously ([Lansbergen et al., 2006]; [Mimori-Kiyosue et al., 2005]). HEK293T cells were purchased from ATCC; culture and transfection of DNA and siRNA into these cell lines was performed as previously described ([van der Vaart et al., 2013]). HaCaT cells were purchased at Cell Line Service (Eppelheim, Germany) and cultured according to manufacturer’s instructions. The cell lines were routinely checked for mycoplasma contamination using LT07-518 Mycoalert assay (Lonza, Switzerland).The identity of the cell lines was monitored by immunofluorescence-staining-based analysis with multiple markers. Blebbistatin was purchased from Enzo Life Sciences and used at 50 μM. […]
For presentation, images were adjusted for brightness and processed by Gaussian blur and Unsharp mask filter using ImageJ 1.47v (NIH). Fluorescence profiles are values measured by line scan analysis in ImageJ, normalized by background average fluorescence, expressed as a factor of the baseline value obtained for individual channel and plotted as a function of maximum length factor of the selection line (distance ratio). Protein clustering at the cell edge is the ratio of the total fluorescence in the first 5 μm from the cell edge to the next 5 μm measured by line scan analysis in ImageJ after thresholding for cell outline marking and out-of-cell region value assigned to zero. […]

**Q.** For “GFP-talin1-G1404L: GFP-tagged mouse talin1 with single point mutation G1404L”, which “Peripheral clustering of LL5β, percentage of control, AV, talin rescue” value [1] is on record?
**A.** Its value is 20.7686 percentage of control condition average value.

**Q.** And the “AV areaFA” value [2]?
**A.** Its value is 1.146.
